We go through 36 compounds from US9382245B2, “Compounds and methods for treating HIV infections” (priority 2013, dated 2016).

Data set [1] can be described thus: in vitro. The note with it: human.
Data set [2] relates to human MT-2 T-cells. The note with it: human.

Turning to `Cc1cc2c(Oc3ccc(Cl)cc3OCCn3ccc(=O)[nH]c3=O)cccc2o1` [12g, 1-(2-(5-chloro-2-((2-methylbenzofuran-4-yl)oxy)phenoxy)ethyl)pyrimidine-2,4(1H,3H)-dione], the CC50 in data set [1] stood at 8 µM. Consider `N#Cc1ccc2c(Oc3ccc(Cl)cc3OCCn3ccc(=O)[nH]c3=O)cc(Cl)cc2c1` [14h, 7-chloro-5-(4-chloro-2-(2-(2,4-dioxo-3,4-dihydropyrimidin-1(2H)-yl)ethoxy)phenoxy)-2-naphthonitrile], for which the CC50 in data set [2] amounted to 20 µM. On to `Cc1cc(Oc2ccccc2OCCn2ccc(=O)[nH]c2=O)c2cc(C#N)[nH]c2c1` [8e, 4-(2-(2-(2,4-dioxo-3,4-dihydropyrimidin-1(2H)-yl)ethoxy)phenoxy)-6-methyl-1H-indole-2-carbonitrile], for which the CC50 in data set [1] was determined as 1.2 µM. On the same count and under the same terms, the figure for `O=c1ccn(CCOc2cc(Cl)ccc2Oc2cccc3[nH]ccc23)c(=O)[nH]1` [8b, 1-(2-(2-((1H-indol-4-yl)oxy)-5-chlorophenoxy)ethyl)pyrimidine-2,4(1H,3H)-dione] is 18 µM; for `N#Cc1cc2c(Oc3cc(F)ccc3OCCn3ccc(=O)[nH]c3=O)cccn2c1` [10j, 8-(2-(2-(2,4-dioxo-3,4-dihydropyrimidin-1(2H)-yl)ethoxy)-5-fluorophenoxy)indolizine-2-carbonitrile] it is 35 µM.

With `Cc1ccc2c(Oc3ccccc3OCCn3ccc(=O)[nH]c3=O)cccc2c1` [14b, 1-(2-(2-((6-methylnaphthalen-1-yl)oxy)phenoxy)ethyl)pyrimidine-2,4(1H,3H)-dione], in data set [2], the CC50 was determined as 40 µM. `N#Cc1cc2c(Oc3ccccc3OCCn3ccc(=O)[nH]c3=O)cccn2c1` [10b, 8-(2-(2-(2,4-dioxo-3,4-dihydropyrimidin-1(2H)-yl)ethoxy)phenoxy)indolizine-2-carbonitrile]: the CC50 in data set [1] and in data set [2] was over 100 µM each time. Consider `Cc1cc2c(Oc3ccccc3OCCn3ccc(=O)[nH]c3=O)cccn2c1` [10a, 1-(2-(2-((2-methylindolizin-8-yl)oxy)phenoxy)ethyl)pyrimidine-2,4(1H,3H)-dione], for which, in data set [1], the CC50 is 9 µM. The same measure, in the same setting: the figure for `Cc1cc(Oc2ccccc2OCCn2ccc(=O)[nH]c2=O)c2cc(C#N)oc2c1` [12b, 4-(2-(2-(2,4-dioxo-3,4-dihydropyrimidin-1(2H)-yl)ethoxy)phenoxy)-6-methylbenzofuran-2-carbonitrile] is over 100 µM. In turn, `N#Cc1ccc2c(Oc3ccc(Cl)cc3OCCn3ccc(=O)[nH]c3=O)cc(F)cc2c1` [14m, 5-(4-chloro-2-(2-(2,4-dioxo-3,4-dihydropyrimidin-1(2H)-yl)ethoxy)phenoxy)-7-fluoro-2-naphthonitrile] came in with a CC50 in data set [2] of 18 µM. In data set [1], `N#Cc1cc2c(Oc3ccccc3OCCn3ccc(=O)[nH]c3=O)cc(Cl)cc2[nH]1` [8f, 6-chloro-4-(2-(2-(2,4-dioxo-3,4-dihydropyrimidin-1(2H)-yl)ethoxy)phenoxy)-1H-indole-2-carbonitrile] returned a CC50 of 81 µM. As for `N#Cc1cc2c(Oc3cc(F)c(F)cc3OCCn3ccc(=O)[nH]c3=O)cccn2c1` [10k, 8-(2-(2-(2,4-dioxo-3,4-dihydropyrimidin-1(2H)-yl)ethoxy)-4,5-difluorophenoxy)indolizine-2-carbonitrile], in data set [1], the CC50 was determined as 19 µM. `N#Cc1cc2c(Oc3ccc(F)cc3OCCn3ccc(=O)[nH]c3=O)cc(Cl)cn2c1` [10i, 6-chloro-8-(2-(2-(2,4-dioxo-3,4-dihydropyrimidin-1(2H)-yl)ethoxy)-4-fluorophenoxy)indolizine-2-carbonitrile] yielded a CC50 in data set [2] of 15 µM. In data set [2], `N#Cc1cc2c(Oc3ccccc3OCCn3ccc(=O)[nH]c3=O)cc(F)cn2c1` [10d, 8-(2-(2-(2,4-dioxo-3,4-dihydropyrimidin-1(2H)-yl)ethoxy)phenoxy)-6-fluoroindolizine-2-carbonitrile] returned a CC50 of 40 µM.

In data set [2], `N#Cc1ccc2c(Oc3ccccc3OCCn3ccc(=O)[nH]c3=O)cc(Cl)cc2c1` [14f, 7-chloro-5-(2-(2-(2,4-dioxo-3,4-dihydropyrimidin-1(2H)-yl)ethoxy)phenoxy)-2-naphthonitrile] displayed a CC50 of 24 µM. For `N#Cc1cc2c(Oc3ccccc3OCCn3ccc(=O)[nH]c3=O)cccc2[nH]1` [8d, 4-(2-(2-(2,4-dioxo-3,4-dihydropyrimidin-1(2H)-yl)ethoxy)phenoxy)-1H-indole-2-carbonitrile], in data set [1], the CC50 is 72 µM. On to `N#Cc1cc2c(Oc3ccc(F)cc3OCCn3ccc(=O)[nH]c3=O)cccc2o1` [12d, 4-(2-(2-(2,4-dioxo-3,4-dihydropyrimidin-1(2H)-yl)ethoxy)-4-fluorophenoxy)benzofuran-2-carbonitrile], for which the CC50 in data set [1] and in data set [2] was over 100 µM throughout. `N#Cc1cc2c(Oc3ccc(Cl)cc3OCCn3ccc(=O)[nH]c3=O)cccn2c1` [10m, 8-(4-chloro-2-(2-(2,4-dioxo-3,4-dihydropyrimidin-1(2H)-yl)ethoxy)phenoxy)indolizine-2-carbonitrile] registered a CC50 in data set [1] of 55 µM. Regarding `O=c1ccn(CCOc2ccccc2Oc2cccc3[nH]ccc23)c(=O)[nH]1` [8a, 1-(2-(2-((1H-indol-4-yl)oxy)phenoxy)ethyl)pyrimidine-2,4(1H,3H)-dione], the CC50 in data set [1] was found to be 53 µM. On the same count and under the same terms, the value for `O=c1ccn(CCOc2cc(Cl)ccc2Oc2cccc3occc23)c(=O)[nH]1` [12f, 1-(2-(2-(benzofuran-4-yloxy)-5-chlorophenoxy)ethyl)pyrimidine-2,4(1H,3H)-dione] was 19 µM. Consider `O=c1ccn(CCOc2ccccc2Oc2cccc3cc(Cl)ccc23)c(=O)[nH]1` [14c, 1-(2-(2-((6-chloronaphthalen-1-yl)oxy)phenoxy)ethyl)pyrimidine-2,4(1H,3H)-dione], for which, in data set [2], the CC50 was over 100 µM. With `N#Cc1ccc2c(Oc3ccc(F)cc3OCCn3ccc(=O)[nH]c3=O)cc(F)cc2c1` [14l, 5-(2-(2-(2,4-dioxo-3,4-dihydropyrimidin-1(2H)-yl)ethoxy)-4-fluorophenoxy)-7-fluoro-2-naphthonitrile], the CC50 in data set [1] and in data set [2] was over 100 µM in each case. With `N#Cc1ccc2c(Oc3ccc(Cl)cc3OCCn3ccc(=O)[nH]c3=O)cccc2c1` [14j, 5-(4-chloro-2-(2-(2,4-dioxo-3,4-dihydropyrimidin-1(2H)-yl)ethoxy)phenoxy)-2-naphthonitrile], in data set [2], the CC50 is over 100 µM. Regarding `O=c1ccn(CCOc2cc(Cl)ccc2Oc2cccc3ccoc23)c(=O)[nH]1` [13a, 1-(2-(2-(benzofuran-7-yloxy)-5-chlorophenoxy)ethyl)pyrimidine-2,4(1H,3H)-dione], the CC50 in data set [1] was determined as 50 µM. On to `N#Cc1cc2c(Oc3ccccc3OCCn3ccc(=O)[nH]c3=O)cccc2o1` [12a, 4-(2-(2-(2,4-dioxo-3,4-dihydropyrimidin-1(2H)-yl)ethoxy)phenoxy)benzofuran-2-carbonitrile], for which the CC50 in data set [1] and in data set [2] was over 100 µM in each case. `O=c1ccn(CCOc2ccccc2Oc2cc(Cl)cc3cc(Cl)ccc23)c(=O)[nH]1` [14d, 1-(2-(2-((3,6-dichloronaphthalen-1-yl)oxy)phenoxy)ethyl)pyrimidine-2,4(1H,3H)-dione] displayed a CC50 in data set [2] of 45 µM. In the case of `Cc1cc2c(Oc3ccccc3OCCn3ccc(=O)[nH]c3=O)cccc2[nH]1` [8c, 1-(2-(2-((2-methyl-1H-indol-4-yl)oxy)phenoxy)ethyl)pyrimidine-2,4(1H,3H)-dione], the CC50 in data set [1] turned out to be 15 µM. Same read-out and setting: the value for `Cc1cc(Oc2ccccc2OCCn2ccc(=O)[nH]c2=O)c2cc(C#N)cn2c1` [10c, 8-(2-(2-(2,4-dioxo-3,4-dihydropyrimidin-1(2H)-yl)ethoxy)phenoxy)-6-methylindolizine-2-carbonitrile] was 3 µM. `N#Cc1cc2c(Oc3ccc(Cl)cc3OCCn3ccc(=O)[nH]c3=O)cccc2o1` [12h, 4-(4-chloro-2-(2-(2,4-dioxo-3,4-dihydropyrimidin-1(2H)-yl)ethoxy)phenoxy)benzofuran-2-carbonitrile] had a CC50 in data set [1] of 7 µM. For `Cc1cc(Oc2ccc(F)cc2OCCn2ccc(=O)[nH]c2=O)c2cc(C#N)oc2c1` [12e, 4-(2-(2-(2,4-dioxo-3,4-dihydropyrimidin-1(2H)-yl)ethoxy)-4-fluorophenoxy)-6-methylbenzofuran-2-carbonitrile], the CC50 in data set [1] was over 100 µM. Compound `N#Cc1cc2c(Oc3ccc(Cl)cc3OCCn3ccc(=O)[nH]c3=O)cc(Cl)cn2c1` [10n, 6-chloro-8-(4-chloro-2-(2-(2,4-dioxo-3,4-dihydropyrimidin-1(2H)-yl)ethoxy)phenoxy)indolizine-2-carbonitrile] had a CC50 in data set [1] of 20 µM.

For the compound `N#Cc1ccc2c(Oc3ccc(F)cc3OCCn3ccc(=O)[nH]c3=O)cc(Cl)cc2c1` [14g, 7-chloro-5-(2-(2-(2,4-dioxo-3,4-dihydropyrimidin-1(2H)-yl)ethoxy)-4-fluorophenoxy)-2-naphthonitrile], the CC50 in data set [2] was found to be 16 µM. In data set [1], `N#Cc1cc2c(Oc3cc(F)c(F)cc3OCCn3ccc(=O)[nH]c3=O)cc(F)cn2c1` [10l, 8-(2-(2-(2,4-dioxo-3,4-dihydropyrimidin-1(2H)-yl)ethoxy)-4,5-difluorophenoxy)-6-fluoroindolizine-2-carbonitrile] registered a CC50 of 54 µM. For the compound `N#Cc1ccc2c(Oc3ccccc3OCCn3ccc(=O)[nH]c3=O)cc(F)cc2c1` [14k, 5-(2-(2-(2,4-dioxo-3,4-dihydropyrimidin-1(2H)-yl)ethoxy)phenoxy)-7-fluoro-2-naphthonitrile], the CC50 in data set [1] and in data set [2] was over 100 µM throughout. In the case of `N#Cc1cc2c(Oc3ccccc3OCCn3ccc(=O)[nH]c3=O)cc(Cl)cc2o1` [12c, 6-chloro-4-(2-(2-(2,4-dioxo-3,4-dihydropyrimidin-1(2H)-yl)ethoxy)phenoxy)benzofuran-2-carbonitrile], the CC50 in data set [1] and in data set [2] was over 100 µM each time. Turning to `N#Cc1ccc2c(Oc3ccc(F)cc3OCCn3ccc(=O)[nH]c3=O)cccc2c1` [14i, 5-(2-(2-(2,4-dioxo-3,4-dihydropyrimidin-1(2H)-yl)ethoxy)-4-fluorophenoxy)-2-naphthonitrile], the CC50 in data set [1] and in data set [2] was over 100 µM each time.
